# Measurements as given in US20050154536A1, “Two-part drug discovery system” (The University of Pittsburgh - of the Commonwealth System …, priority 2001, published 2005).
# Experiments:
# RAW 264.7 cells = experiment: Steady-state expression of TNF and iNOS transcripts in RAW 264.7 cells; format: cell-based, murine; details: RAW 264.7 cells incubated with LPS
# [1] = system: LPS-stimulated RAW 264.7 murine macrophage-like cells; details: LPS-stimulated RAW 264.7 cells; concentration-dependent
# C57B1/6 mice = experiment: Endotoxemia protocol in C57B1/6 mice (LPS alone); format: in vivo
# Protocol: Mice: All animal experiments were approved by the Institutional Animal Care and Use Committee of the University of Pittsburgh. All studies were carried out in C57B1/6 mice (6-10 wk old mice; Charles River Laboratories, Charles River, Me.).
# Endotoxemia, in which LPS is directly introduced into an animal, is a highly reproducible means for inducing acute systemic inflammation. […] Circulating levels of TNF and IL-10 increase rapidly and decay quickly, whereas IL-6 levels peak at approximately 2-3 h and decay more slowly. The levels of NO, measured as the stable reaction product NO2^−NO3^−, remain elevated for 24 h. Levels of TNF and NO2^−/NO3^− seem to be saturated at 3 mg/kg whereas IL-6 and IL-10 saturate at 6mg/kg (FIG. 8): at 12 mg/kg (FIG. 9), the levels of most analytes are not much higher as compared to those of animals treated with 6 mg/kg LPS.
Molecule,steady-state expression of TNF transcripts (RAW 264.7 cells),steady-state expression of iNOS transcripts (RAW 264.7 cells),concentration of NO2−/NO3− in supernatants [1],concentration of TNF-α in supernatants [1],"survival until final time point (C57B1/6 mice; LPS 3, 6 or 12 mg/kg intraperitoneally, 24 h following injection)",time of IL-6 peak level in circulation (C57B1/6 mice; LPS 3 or 6 mg/kg intraperitoneally)
"NC(=O)C1=CN([C@@H]2O[C@H](COP(=O)(O)OP(=O)(O)OC[C@H]3O[C@@H](n4cnc5c(N)ncnc54)[C@H](O)[C@@H]3O)[C@@H](O)[C@H]2O)C=CC1 [NAD+, Reduced nicotinamide adenine dinucleotide]",decreased,decreased,decreased,decreased,–,–
lipopolysaccharide [LPS],markedly increased,markedly increased,–,–,All of the mice survived,2 to 3 h
